# Key:
# [1] = tested on: APPswe/PS1ΔE9 double transgenic mice; assay: Western blotting of brain homogenates of treated APPswe/PS1ΔE9 mice; type: in vivo, mouse; details: 5 mg/kg daily oral, 20 days
# [2] = tested on: HEK293 cells overexpressing C99-YFP; assay: Western blotting of HEK293 cells overexpressing C99-YFP; type: cell-based; details: 1 μM, 37° C., 24 h
# Description: (A) Adherent CG and NG cells (20,000 cells/well) were treated with 1 μM of the indicated ErbB1/2-selective tyrosine kinase inhibitors in the presence of 1 μg/ml tetracycline at 37° C. for 24 h. The luminescence signals emitted by cells treated with vehicle alone (Ctrl, 0.1% DMSO) were referred to as 100% relative luminescence signals. The luminescence signals generated by γ-secretase-mediated proteolysis of C99 (CG) or NΔE (NG) were determined using the Steady-Glo luciferase assay reagent. (B) HEK293 overexpressing C99-YFP cells were treated with 1 μM of the indicated ErbB1/2 tyrosine kinase inhibitors at 37° C. for 24 h. Clarified lysates were analyzed by Western blotting and quantified by Image J. (C) HEK293 overexpressing ErbB1 ErbB2, CFP-tagged C99, and YFP-tagged NΔE cells were infected with gene-targeting shRNA-encoding lentivirus (shErbB1 or shErbB2) at 37° C. for 48 h. Clarified lysates containing equivalent amounts of proteins were examined by Western blotting and quantified by Image J. (D) CG and NG cells were infected with gene-targeting shRNA-encoding lentivirus at 37° C. for 48 h. Following induction with 1 μg/ml tetracycline for 24 h. Cells infected with empty lentivirus (w/o) or LacZ-targeting shRNA lentivirus (shCtrl_a and shCtrl_b) were included as controls. Data are shown as the mean±SD from three independent experiments, and were analyzed by Student's t-tests. * p<0.05.
# Clarified lysates containing equivalent amounts of proteins were analyzed by Western blotting. (B, C) HEK293 overexpressing CFP-LC3 cells were infected with lentivirus encoding shRNA targeting LacZ ErbB2, or ErbB2 plus ATG5 for 48 h. The autophagy induction was analyzed by fluorescence confocal microscopy. The number of CFP-LC3 puncta per cell was quantified. The levels of LC3-I, LC3-II, and GAPDH were analyzed by Western blotting. (D, E) HEK293 cells overexpressing ErbB1, ErbB2, CFP-tagged C99, and YFP-tagged NΔE were infected with lentivirus encoding shRNA targeting LacZ (Ctrl), ErbB1, or ErbB2 for 48 h. Infection mixtures were replaced with 2 ml of fresh culture medium, and infected cells were then incubated at 37° C. for an additional 24 h. The levels of LC3-1, LC3-II, and p62 were analyzed by Western blotting and quantified by NIH Image J. Conditional media were harvested and processed for determination of secreted Aβ40 using a colourimetric Aβ40-specific ELISA kit. (F, G) HEK293 cells overexpressing C99-YFP were treated with vehicle (DMSO) or 1 μM CL-387,785 at 37° C. for 24 h and analyzed by Western blotting. Conditional media were harvested for determination of secreted Aβ40. The quantitative data are shown as mean±SD from three independent experiments, and were analyzed by Student's t-tests. * p<0.05.
# Preparation of cell extracts. To prepare total cell-free extracts, we harvested cells in 6-well microplates with ice-cold PBS containing 20 mM EDTA, and then pelleted the cells by centrifugation. PBS-washed cells were resuspended in a lysis buffer containing 1% Triton X-100, 50 mM Tris-HCl pH 7.5, 150 mM NaCl, 25 mM β-glycerophosphate, 1 mM Na3VO4, and protease inhibitor cocktail set V (Merck). Following the removal of cell debris by centrifugation, clarified lysates were processed for immunoprecipitation, Western blotting, or quantification of BCA protein content.
# Western blotting analysis. Protein concentration was measured with the BCA Protein Assay Kit (Pierce). […]
# [3] = tested on: APPswe/PS1ΔE9 double transgenic mice; assay: Brain Aβ40 and Aβ42 ELISA in treated APPswe/PS1ΔE9 mice; type: in vivo, mouse; details: 5 mg/kg daily oral, 20 days, normalized to total protein
# [4] = tested on: zebrafish embryos expressing GFP-tagged C99; assay: C99-expressing zebrafish model of AD, Western blotting of embryo lysates; type: in vivo; details: treated from 48 hpf to 72 hpf at 28° C.
# Description: (A) IMR32 cells overexpressing C99-YFP were grown with 2 ml fresh culture medium in 6-well plates, and treated with 1 μM CL-387,785 or DAPT at 37° C. for 24 h. The cell extracts were analyzed by Western blotting. (B) Conditional media were harvested and processed for determination of secreted Aβ40 using a colorimetric Aβ40-specific ELISA kit. (C) C99-YFP-expressing IMR32 cells (160,000 cells/well) were seeded onto 6-well plates and cultured at 37° C. for 24 h, and infected with ErbB1- or ErbB2-targeting shRNA lentivirus for an additional 48 h. Infection mixtures were replaced with 2 ml fresh culture medium, and infected cells were then incubated at 37° C. for an additional 24 h. The cell extracts were analyzed by Western blotting with anti-GFP antibody. (D) The conditioned media were harvested and processed for determination of secreted Aβ40. Data are the mean±SD from three independent experiments, and were analyzed by Student's t-tests. * p<0.05. (E) Schematic presentation of the DNA construct encoding recombinant C99-GFP-P2A-GFP. CMV, human cytomegalovirus promoter; CI, chimeric intron; P2A, porcine teschovirus 2A peptide. […]
# Overexpression of APP-C99 zebrafish. […] Clarified lysates containing equal amounts of protein were analyzed by Western blotting.
smiles,measurement,setting,value
"CC#CC(=O)Nc1ccc2ncnc(Nc3cccc(Br)c3)c2c1 [CL-387,785, N-[4-[(3-bromophenyl)amino]-6-quinazolinyl]-2-butynamide]",brain level of APP-CTF,[1],significant reduction
same,brain level of ErbB2,[1],significant reduction
same,brain level of p62,[1],significant reduction
same,brain level of total APP,[1],steady level
same,brain ratio of LC3-II to LC3-I,[1],increase
same,LC3-II/LC3-I ratio,[2],concurrent increase
same,level of AICD,[2],concomitantly decreased
same,level of C99,[2],concomitantly decreased
same,level of ErbB2,[2],concomitantly decreased
same,level of p62,[2],significant reduction
same,reduction in the level of Aβ40 in brain,[3],approximately 40%
same,reduction in the level of Aβ42 in brain,[3],approximately 40%
same,level of AICD in embryos,[4],concomitant clearance
same,level of C99 in embryos,[4],concomitant clearance
